# According to patent publication US7105566B2, “Methods of treatment during vascular procedures” (Allergan, Inc., priority 2002, dated 2006):
# Several values for one entry are separate records, joined by “and”; a condition that tells them apart may be missing. Equal entries are not always repeated. Entries after “also recorded” stand apart in the source; their conditions may differ.
# How the values were obtained:
# [1] = tested on: male cynomologus monkeys; experiment: Clinical observation, body weight and food consumption of treated monkeys; format: in vivo, cynomolgus monkey; settings: daily 1.25 mg/kg orally for 25 days
# Description: (§1) Five male cynomologus monkeys were employed in the study. Three of the five monkeys were treated with Compound 1 at a daily dosage of 1.25 mg/kg (orally) for a period of 25 days. Compound 1 is an RAR antagonist or inhibitor. The remaining two were similarly treated with a vehicle to serve as control. Serum samples were collected on days 1, 8, 15, 22 and 25 for triglyceride determination. Serum samples from days 8, 15, 22 and 25 were also assayed for the concentration of Compound 1.
# [2] = tested on: female ZDF rats; experiment: Serum triglycerides and cholesterol in female ZDF rats on a diabetogenic high fat diet, Compound 1 at 0.03-0.3 mg/kg; format: in vivo, rat; settings: for Cholesterol day 8, 0 hr, Mean / Triglycerides day 8, 0 hr, Mean / Cholesterol day 0, 4 hr, Mean / Triglycerides day 0, 4 hr, Mean / Cholesterol day 7, 4 hr, Mean / Triglycerides day 7, 4 hr, Mean / Cholesterol day 3, 4 hr, Mean / Triglycerides day 3, 4 hr, Mean: group mean of 4 rats; for Cholesterol day 8, 0 hr, Mean / Triglycerides day 8, 0 hr, Mean / Cholesterol day 8, 0 hr / Triglycerides day 8, 0 hr: 24 hours after the last dosing; for Cholesterol day 0, 4 hr, Mean / Triglycerides day 0, 4 hr, Mean / Cholesterol day 0, 4 hr / Triglycerides day 0, 4 hr: day before dosing (baseline); for Cholesterol day 7, 4 hr, Mean / Triglycerides day 7, 4 hr, Mean / Cholesterol day 7, 4 hr / Triglycerides day 7, 4 hr: seventh day of dosing; for Cholesterol day 3, 4 hr, Mean / Triglycerides day 3, 4 hr, Mean / Cholesterol day 3, 4 hr / Triglycerides day 3, 4 hr: third day of dosing; for Cholesterol day 8, 0 hr / Triglycerides day 8, 0 hr / Cholesterol day 0, 4 hr / Triglycerides day 0, 4 hr / Cholesterol day 7, 4 hr / Triglycerides day 7, 4 hr / Cholesterol day 3, 4 hr / Triglycerides day 3, 4 hr: individual animals
# Description: ZDF rats, which are hyperlipidemic and diabetic, were used as a model to test the effect of RAR antagonists/inhibitors on serum lipids. Female ZDF rats (10–11 weeks old) were fed a GMI 13004 diet, a diabetogenic, high fat diet, for 5–6 weeks. Compound 1 was dissolved in vehicle (2% DMSO, 98% corn oil). Compound 1 was administered at a dosage of 0.03 mg/kg, 0.1 mg/kg, and 0.3 mg/kg body weight. Dosings were performed at approximately 8 a.m. Serum was collected at approximately 12 p.m. on the day before dosing (Day 0, 4 hour); the third day of dosing (Day 3, 4 hour); the seventh day of dosing (Day 7, 4 hour); and 24 hours after the last dosing (Day 8, 0 hour). The levels of triglycerides and cholesterol in the serum samples were measured.
# [3] = tested on: male SJL mice; experiment: Serum triglycerides (STG) in male SJL mice; format: in vivo, mouse; settings: 20 mg/kg oral daily
# Description: Male SJL mice were dosed orally with vehicle, Compound 1 (an RAR pan-antagonist), or Compound 3 (an RARE antagonist) for 4 consecutive days. The structure and synthesis of Compound 1 is described in Example I. The structure of Compound 3 is shown below, and the compound was synthesized using routine methods:
# The test compounds were dissolved in corn oil and given at a dosage/volume of 20 mg/5 ml/kg.
# On day 3, serum triglycerides (STG) were determined from samples collected at 7 a.m.
# (§2) On day 4, animals were fasted after dosing, starting at 8 a.m. Following 6 hours of fasting, blood samples were collected prior to intravenous injection of WR-1339 at 100 mg/5 ml/kg. Additional serum samples were collected at 1 and 2 hours after WR-1339 injection. WR-1339 is a detergent that inactivates lipoprotein lipase and thus prevents the removal of triglycerides from circulation. By measuring the increase of STG after WR-1339 administration in fasted animals, the hepatic triglyceride (HTG) output during fasting can be estimated.
# (§3) Due to the lack of effect of Compound 3 at 20 mg/kg, the dose was increased to 100 mg/kg in the same set of mice. STG was determined on day 3 prior to dosing (Day 3, 8 a.m.). […] To ensure that Compound 3 would be bioavailable, Compound 3 was dissolved in DMSO and given by intraperitoneal injections, once at 4 p.m. on day 3 and once at 8 a.m. on day 4, at a dosage of 100 mg/kg/injection. Administration of WR-1339 and blood collections on day 4 were similarly conducted as described above.
# [4] = tested on: male cynomolgus monkeys; experiment: Serum triglycerides of male cynomolgus monkeys treated by gastric intubation; format: in vivo, cynomolgus monkey; settings: 1.0 mg/0.4 ml/kg by gastric intubation, daily; mean of 3 monkeys
# Description: as §1, with “Three of the five monkeys were treated with Compound 1 at a daily dosage of 1.25 mg/kg (orally) for a period of 25 days.” left out
# [5] = tested on: male SJL mice; experiment: Hepatic triglyceride (HTG) output after WR-1339 injection in fasted male SJL mice; format: in vivo, mouse; settings: 20 mg/kg oral daily for 4 days; fasted
# Description: as §2, §3
structure (smiles),measurement,setting,value
"CCc1ccc(C2=CC(C)(C)Sc3ccc(C#Cc4ccc(C(=O)O)cc4)cc32)cc1 [Compound 1, 4-[[4-(4-ethylphenyl)-2,2-dimethyl-(2H)-thiochromen-6-yl]-ethynyl]-benzoic acid]",body weight or rate of food consumption,[1],no change
same,general health / clinical signs,[1]; 1.25 mg/kg,appeared healthy; also recorded: without any noticeable abnormal clinical signs
same,serum triglyceride levels as % of pre-treatment triglyceride levels,[2]; 0.03 mg/kg oral,about 59%
same,"Cholesterol day 8, 0 hr, Mean",[2]; 0.03 mg/kg oral,110
same,"Triglycerides day 8, 0 hr, Mean",[2]; 0.03 mg/kg oral,781
same,"Cholesterol day 0, 4 hr, Mean",[2]; 0.03 mg/kg oral,123
same,"Triglycerides day 0, 4 hr, Mean",[2]; 0.03 mg/kg oral,1334
same,"Cholesterol day 7, 4 hr, Mean",[2]; 0.03 mg/kg oral,109
same,"Triglycerides day 7, 4 hr, Mean",[2]; 0.03 mg/kg oral,749
same,"Cholesterol day 3, 4 hr, Mean",[2]; 0.03 mg/kg oral,105
same,"Triglycerides day 3, 4 hr, Mean",[2]; 0.03 mg/kg oral,794
same,"Cholesterol day 8, 0 hr",[2]; 0.03 mg/kg oral,108 (2×) and 93 and 129
same,"Triglycerides day 8, 0 hr",[2]; 0.03 mg/kg oral,846 and 531 and 1230 and 516
same,"Cholesterol day 0, 4 hr",[2]; 0.03 mg/kg oral,114 and 129 (2×) and 120
same,"Triglycerides day 0, 4 hr",[2]; 0.03 mg/kg oral,1200 and 1245 and 1944 and 945
same,"Cholesterol day 7, 4 hr",[2]; 0.03 mg/kg oral,111 and 105 and 96 and 123
same,"Triglycerides day 7, 4 hr",[2]; 0.03 mg/kg oral,771 and 468 and 855 and 903
same,"Cholesterol day 3, 4 hr",[2]; 0.03 mg/kg oral,93 and 96 and 129 and 102
same,"Triglycerides day 3, 4 hr",[2]; 0.03 mg/kg oral,663 and 651 and 1197 and 666
same,serum triglyceride levels as % of pre-treatment triglyceride levels,[2]; 0.1 mg/kg oral,~40%
same,"Cholesterol day 8, 0 hr, Mean",[2]; 0.1 mg/kg oral,105
same,"Triglycerides day 8, 0 hr, Mean",[2]; 0.1 mg/kg oral,479
same,"Cholesterol day 0, 4 hr, Mean",[2]; 0.1 mg/kg oral,125
same,"Triglycerides day 0, 4 hr, Mean",[2]; 0.1 mg/kg oral,1208
same,"Cholesterol day 7, 4 hr, Mean",[2]; 0.1 mg/kg oral,107
same,"Triglycerides day 7, 4 hr, Mean",[2]; 0.1 mg/kg oral,505
same,"Cholesterol day 3, 4 hr, Mean",[2]; 0.1 mg/kg oral,106
same,"Triglycerides day 3, 4 hr, Mean",[2]; 0.1 mg/kg oral,497
same,"Cholesterol day 8, 0 hr",[2]; 0.1 mg/kg oral,102 (2×) and 105 and 111
same,"Triglycerides day 8, 0 hr",[2]; 0.1 mg/kg oral,390 and 339 and 486 and 699
same,"Cholesterol day 0, 4 hr",[2]; 0.1 mg/kg oral,123 (2×) and 129 and 126
same,"Triglycerides day 0, 4 hr",[2]; 0.1 mg/kg oral,1284 and 993 and 1197 and 1356
same,"Cholesterol day 7, 4 hr",[2]; 0.1 mg/kg oral,114 and 90 and 111 (2×)
same,"Triglycerides day 7, 4 hr",[2]; 0.1 mg/kg oral,429 and 384 and 618 and 588
same,"Cholesterol day 3, 4 hr",[2]; 0.1 mg/kg oral,129 and 84 and 96 and 114
same,"Triglycerides day 3, 4 hr",[2]; 0.1 mg/kg oral,402 and 360 and 681 and 546
same,serum triglyceride levels as % of pre-treatment triglyceride levels,[2]; 0.3 mg/kg oral,~14%
same,"Cholesterol day 8, 0 hr, Mean",[2]; 0.3 mg/kg oral,115
same,"Triglycerides day 8, 0 hr, Mean",[2]; 0.3 mg/kg oral,215
same,"Cholesterol day 0, 4 hr, Mean",[2]; 0.3 mg/kg oral,131
same,"Triglycerides day 0, 4 hr, Mean",[2]; 0.3 mg/kg oral,1550
same,"Cholesterol day 7, 4 hr, Mean",[2]; 0.3 mg/kg oral,119
same,"Triglycerides day 7, 4 hr, Mean",[2]; 0.3 mg/kg oral,215
same,"Cholesterol day 3, 4 hr, Mean",[2]; 0.3 mg/kg oral,101
same,"Triglycerides day 3, 4 hr, Mean",[2]; 0.3 mg/kg oral,282
same,"Cholesterol day 8, 0 hr",[2]; 0.3 mg/kg oral,102 and 120 and 123 and 114
same,"Triglycerides day 8, 0 hr",[2]; 0.3 mg/kg oral,222 and 180 and 195 and 261
same,"Cholesterol day 0, 4 hr",[2]; 0.3 mg/kg oral,105 and 141 and 156 and 123
same,"Triglycerides day 0, 4 hr",[2]; 0.3 mg/kg oral,882 and 1725 and 2244 and 1350
same,"Cholesterol day 7, 4 hr",[2]; 0.3 mg/kg oral,99 and 126 and 132 and 120
same,"Triglycerides day 7, 4 hr",[2]; 0.3 mg/kg oral,195 and 222 and 267 and 174
same,"Cholesterol day 3, 4 hr",[2]; 0.3 mg/kg oral,93 and 96 and 108 (2×)
same,"Triglycerides day 3, 4 hr",[2]; 0.3 mg/kg oral,282 and 234 and 297 and 315
same,effect on serum cholesterol levels,[2]; 0.03-0.3 mg/kg oral,"effective at lowering serum cholesterol levels, although the effect was more modest than observed for serum triglycerides"
same,"non-fasting STG (Day 3, 8 a.m.)",[3],appeared to lower
same,"fasting STG (Day 4, 2 p.m.)",[3]; after 6 hours of fasting,but not fasting STG
same,"Serum triglycerides Day 25, Mean",[4],24.0 mg/dL
same,HTG output after WR-1339 injection,[5],reduction of HTG output
